Values quoted from earlier work as cited in patent publication US20110091889A1, “CENTROSOME-ASSAY” (4SC AG, priority 2008, published 2011).

Target: T1, Eg5 (Homo sapiens, UniProt P52732)
T1 sequence (P52732 1-1056): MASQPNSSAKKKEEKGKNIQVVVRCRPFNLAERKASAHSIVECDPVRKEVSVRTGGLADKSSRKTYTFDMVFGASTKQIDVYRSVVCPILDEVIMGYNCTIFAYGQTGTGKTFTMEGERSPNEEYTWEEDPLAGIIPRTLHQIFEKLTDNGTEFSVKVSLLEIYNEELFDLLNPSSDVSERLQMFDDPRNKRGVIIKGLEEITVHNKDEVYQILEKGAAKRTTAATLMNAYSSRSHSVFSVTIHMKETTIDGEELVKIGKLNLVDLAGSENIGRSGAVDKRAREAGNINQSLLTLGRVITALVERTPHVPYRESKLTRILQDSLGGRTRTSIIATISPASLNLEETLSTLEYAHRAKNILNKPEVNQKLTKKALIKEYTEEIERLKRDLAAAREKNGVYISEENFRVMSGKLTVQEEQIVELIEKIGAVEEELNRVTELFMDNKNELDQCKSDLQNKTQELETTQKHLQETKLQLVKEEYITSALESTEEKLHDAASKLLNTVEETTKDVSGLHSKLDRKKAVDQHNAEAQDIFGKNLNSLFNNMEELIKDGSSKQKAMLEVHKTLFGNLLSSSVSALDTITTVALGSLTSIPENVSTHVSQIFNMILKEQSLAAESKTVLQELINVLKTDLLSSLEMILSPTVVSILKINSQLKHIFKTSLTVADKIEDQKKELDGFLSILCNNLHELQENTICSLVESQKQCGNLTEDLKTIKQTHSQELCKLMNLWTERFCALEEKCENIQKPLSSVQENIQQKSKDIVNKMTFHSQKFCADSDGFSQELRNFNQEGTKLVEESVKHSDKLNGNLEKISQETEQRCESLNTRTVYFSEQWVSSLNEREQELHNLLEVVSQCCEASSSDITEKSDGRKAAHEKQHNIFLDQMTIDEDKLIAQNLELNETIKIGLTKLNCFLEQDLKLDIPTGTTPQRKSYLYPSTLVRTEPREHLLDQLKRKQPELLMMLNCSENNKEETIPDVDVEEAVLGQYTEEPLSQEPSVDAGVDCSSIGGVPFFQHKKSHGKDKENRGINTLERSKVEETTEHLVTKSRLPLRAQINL
Details: as compared to the (R)-enantiomer; in vitro and in vivo

## CCOC(=O)C1=C(C)NC(=S)N[C@H]1c1cccc(O)c1 [(S)-monastrol]
  relative potency as inhibitor of Eg5 activity: more potent inhibitor of Eg5 activity
